Data published in patent US20250179033A1 (priority 2021, published 2025).
Values joined by “and” are separate entries in the source; they are usually repeats but may differ in a detail not shown here. Equal entries are not always repeated. Where two headings read alike, the source gives them in different places.

Experiment: In vivo pharmacokinetics, plasma and brain
Design: species or system Balb/C male mice
Conditions: 250 mg/kg intragastric; for AUC(0-inf) / MRT / half-life / AUC(0-t) / Cmax: male, Balb/C, mouse, po; for AUC(0-inf) / MRT / half-life / AUC(0-t) / Cmax / CL / Kel / Vd: plasma; for AUC(0-t): read-out: AUC0-7
Description: The pharmacokinetics of compound 1 was studied in white Balb/C male mice. 22 animals with an average body weight of 20 g were selected for the study. Before the study, the animals were kept on a standard vivarium ration with dry pelleted feed. All the test animals had free access to water but were deprived of food for 1 hour before administration of the compound. This regimen was continued for another hour after the administration.
Compound 1 in a dose of 250 mg/kg of body weight was administered as 0.5 ml of prepared suspension in 0.5% CMC by intragastric intubation. The animals were euthanized by decapitation for blood and brain sampling. Blood and brain samples (3 animals per time point) were taken at 0.5, 1, 2, 3, 5 and 7 hours after administration for pharmacokinetic evaluation. Blood was collected in heparinized tubes and centrifuged at 3500 RPM. Plasma was separated from formed elements and immediately frozen at −20° C. in freezer. This storage continued before transferring plasma for analysis. Serum from 6 untreated animals was used as a control and for equipment calibration with the compound. Mice brain was immediately frozen at −120° C.
Plasma separation: Samples of experimental blood ([…]) from animals were centrifuged at 3500 rpm for 15 minutes.
Sample preparation: A mixture of 60 μL of plasma and 180 μL of acetonitrile (MeCN) by intensive shaking (Vortex) for 30 sec. Centrifugation 32000 g for 4 min. After centrifugation the 150 μL of organic layer was injected into the HPLC column.
Equipment: HPLC System Agilent 1290 Infinity, MS spectrometer Agilent 6460 (Agilent Technologies, Santa Clara, California, United States of America)
HPLC conditions: Column: Agilent Eclipse Plus C18 RRHD 1.8 um 2.1×50 mm (Agilent Technologies, Santa Clara, California, United States of America), Temperature: 40° C., Flow speed: 0.4 mL/min
Eluent: A: water, 0.1% formic acid; B: 85% acetonitrile in water, 0.1% formic acid
Gradient: 0.0-3.0 min: 60% B (separation), 3.0-4.0 min: 60->97% B (washing and regeneration), 4.0-6.0 min: 97% B, 6.0-6.1 min: 97->60% B, 6.1-9.0 min: 60% B, Volume of sample: 2 μL. Retention time in above conditions: 2.40 min.
MS conditions: ESI(+), MRM 400->209, Dwell time: 200 ms, Fragmentor: 135 V, Collision energy: 12, Cell Accelerator: 3 V, Gas Temp: 350° C., Gas Flow: 12 I/min, Nebulizer: 35 psi, Sheath gas Temp: 300° C., Capillary Voltage: 3500 V, Nozzle Voltage: 450 V; Diverter valve: 0.0-1.3 min: to waste; 1.3-3.0 min: to MS, data acquisition, 3.0-7.0 min: to MS, idle, 7.0- . . . min: to waste
Brain separation: Samples of experimental brain from animals were dispersed at 25K turn/min for 3 minutes and 100 mg of each sample was balanced to a sterile container.
Sample preparation: A mixture of 100 mg of brain and 100 μL of water was treated by zirconium balls in a homogonisator MagNA Lyser for 30 sec. 300 μL of MeCN was added and intensive shaking (Vortex) for 30 sec was performed. Centrifugation 32000 g for 4 min.
Equipment: HPLC System Agilent 1290 Infinity, MS spectrometer Agilent 6460 (Agilent Technologies, Santa Clara, California, United States of America).
HPLC conditions: Column: Agilent Eclipse Plus C18 RRHD 1.8 um 2.1×50 mm (Agilent Technologies, Santa Clara, California, United States of America), Temperature: 40° C., Flow speed: 0.4 mL/min.
Eluent: A: water, 0.1% formic acid; B: 85% acetonitrile in water, 0.1% formic acid.
Gradient: 0.0-3.0 min: 60% B (separation), 3.0-4.0 min: 60->97% B (washing and regeneration), 4.0-6.0 min: 97% B, 6.0-6.1 min: 97->60% B, 6.1-9.0 min: 60% B, Volume of sample: 2 μL.
Retention time in above conditions: 2.40 min […]

Structure (SMILES): Nc1nc(Nc2ccc(Cl)cc2)nn1S(=O)(=O)c1ccc2ccccc2c1 [Compound 1, N3-(4-chlorophenyl)-1-(2-naphthylsulfonyl)-1,2,4-triazole-3,5-diamine]
- AUC(0-inf) (250 mg/kg, mean of mice groups): 6220 ng·h/mL
- MRT (250 mg/kg, mean of mice groups): 5.9 h
- half-life (250 mg/kg, mean of mice groups): 4.1 h
- AUC(0-t) (250 mg/kg, mean of mice groups): 4050 ng·h/mL
- AUC(0-inf) (250 mg/kg, mice group 1): 6230 ng·h/mL
- Cmax (250 mg/kg, mice group 1): 1050 ng/mL
- MRT (250 mg/kg, mice group 1): 7.4 h
- half-life (250 mg/kg, mice group 1): 5 h
- AUC(0-t) (250 mg/kg, mice group 1): 3710 ng·h/mL
- AUC(0-inf) (250 mg/kg, mice group 2): 6890 ng·h/mL
- Cmax (250 mg/kg, mice group 2): 1170 ng/mL
- MRT (250 mg/kg, mice group 2): 6.8 h
- half-life (250 mg/kg, mice group 2): 5 h
- AUC(0-inf) (250 mg/kg, mice group 3): 5550 ng·h/mL
- Cmax (250 mg/kg, mice group 3): 1350 ng/mL
- MRT (250 mg/kg, mice group 3): 3.6 h
- half-life (250 mg/kg, mice group 3): 2.4 h
- AUC(0-t) (250 mg/kg, mice group 3): 4080 ng·h/mL
- concentrations of the compound in brain (mice, preliminary, 250 mg/kg): 1-5 μg/ml and 2.5-12.5 μM
- CL (mean of mice groups): 0.809 L/h
- Kel (mean of mice groups): 0.1872 h⁻¹
- Vd (mean of mice groups): 4.8 L
- CL (mice group 1): 0.803 L/h
- Kel (mice group 1): 0.1382 h⁻¹
- Vd (mice group 1): 5.8 L
- CL (mice group 2): 0.725 L/h
- Kel (mice group 2): 0.1381 h⁻¹
- Vd (mice group 2): 5.3 L
- CL (mice group 3): 0.901 L/h
- Kel (mice group 3): 0.2852 h⁻¹
- Vd (mice group 3): 3.2 L
